In PMC12406204 (Journal of Medicinal Chemistry, 2025):

Tests used:
[1] = molecular target: CB1R (Homo sapiens, UniProt P21554); test: CB1R radioligand binding competition ([3H]CP55,940); design: host or cells: CHO-CB1 C3 cell line; conditions: for CB1R % at 1 μM: percentage displacement of specific [3H]CP 55,940 binding at 1 μM, n = 2; for Ki: displacement of [3H]CP 55,940, membranes of CHO-CB1 C3 cells, n = 3
[2] = molecular target: CB2R (Homo sapiens, UniProt P34972); test: CB2R radioligand binding competition ([3H]CP55,940); design: expressed in transfected cells; host or cells: HEK-293T (HEK-CB2 cell line); conditions: for Ki: displacement of [3H]CP 55,940, membranes of HEK-293T cells, n = 3; for SI Ki CB1R/Ki CB2R: selectivity index, affinity ratio; for CB2R % at 1 μM: percentage displacement of specific [3H]CP 55,940 binding at 1 μM, n = 2
Chain of CB2R (P34972 whole entry): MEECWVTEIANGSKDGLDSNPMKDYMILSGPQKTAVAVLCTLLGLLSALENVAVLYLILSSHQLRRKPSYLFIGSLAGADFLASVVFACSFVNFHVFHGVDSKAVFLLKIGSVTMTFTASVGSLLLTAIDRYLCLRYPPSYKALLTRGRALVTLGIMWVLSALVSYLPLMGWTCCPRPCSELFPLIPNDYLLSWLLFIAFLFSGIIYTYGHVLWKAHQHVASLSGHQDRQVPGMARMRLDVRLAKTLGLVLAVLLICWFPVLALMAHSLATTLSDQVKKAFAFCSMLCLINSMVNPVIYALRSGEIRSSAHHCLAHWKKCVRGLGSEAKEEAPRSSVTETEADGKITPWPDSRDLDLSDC

Chain of CB1R (P21554 whole entry): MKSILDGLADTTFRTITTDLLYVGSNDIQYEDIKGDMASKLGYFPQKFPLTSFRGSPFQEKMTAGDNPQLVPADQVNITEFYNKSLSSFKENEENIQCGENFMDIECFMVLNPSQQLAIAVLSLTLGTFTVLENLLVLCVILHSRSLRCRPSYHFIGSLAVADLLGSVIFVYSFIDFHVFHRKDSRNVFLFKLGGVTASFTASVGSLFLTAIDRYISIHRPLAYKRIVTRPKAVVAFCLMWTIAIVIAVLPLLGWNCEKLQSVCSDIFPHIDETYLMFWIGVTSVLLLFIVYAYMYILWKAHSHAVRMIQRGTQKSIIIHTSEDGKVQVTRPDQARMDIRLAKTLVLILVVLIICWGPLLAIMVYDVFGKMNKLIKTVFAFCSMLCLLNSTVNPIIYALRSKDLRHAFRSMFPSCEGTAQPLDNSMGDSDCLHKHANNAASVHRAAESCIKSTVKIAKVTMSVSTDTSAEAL

| Structure (SMILES) | CB1R % at 1 μM [1] | Ki [2] | SI Ki CB1R/Ki CB2R [2] | CB2R % at 1 μM [2] | Ki [1] |
| --- | --- | --- | --- | --- | --- |
| NC(=O)[C@@H]1CCCCN1C(=O)c1nn(CC2CCCCC2)c2ccccc12 [18m] | 21% | 0.0595 ± 0.0028 µM | >100 |  |  |
| NC(=O)[C@@H]1CCCCN1C(=O)c1nn(CCCCCF)c2ccccc12 [18k] | 3% | 0.151 ± 0.006 µM | >100 |  |  |
| NC(=O)[C@@H]1CCCN1C(=O)c1cn(Cc2ccc(F)cc2)c2ccccc12 [17g] | 3% |  |  | 20% |  |
| COC(=O)[C@H]1CCCN1C(=O)c1cn(Cc2ccc(F)cc2)c2ccccc12 [15h] | 10% | 0.599 ± 0.013 µM | >100 |  |  |
| NC(=O)[C@@H]1CCCCN1C(=O)c1cn(CCCCCF)c2ccccc12 [18c] | 7% | 0.132 ± 0.004 µM | >100 |  |  |
| CCCCCn1nc(C(=O)N2CCC[C@@H]2C(=O)OC)c2ccccc21 [15j] | 4% | 0.208 ± 0.005 µM | >100 |  |  |
| COC(=O)[C@H]1CCCN1C(=O)c1cn(CCCCCF)c2ccccc12 [15d] | 3% |  |  | 26% |  |
| COC(=O)[C@@H]1CCCCN1C(=O)c1nn(CC2CCCCC2)c2ccccc12 [16m] |  | 0.0052 ± 0.0004 µM | 31 |  | 0.162 ± 0.003 µM |
| CCCCCn1cc(C(=O)N2CCC[C@H]2C(N)=O)c2ccccc21 [17a] | 2% |  |  | 24% |  |
| NC(=O)[C@H]1CCCCN1C(=O)c1cn(CCCCCF)c2ccccc12 [18d] | 15% | 0.169 ± 0.006 µM | >100 |  |  |
| COC(=O)[C@@H]1CCCN1C(=O)c1cn(Cc2ccc(F)cc2)c2ccccc12 [15g] |  | 0.0477 ± 0.0019 µM | 0.3 |  | 0.0144 ± 0.0006 µM |
| NC(=O)[C@H]1CCCN1C(=O)c1nn(CC2CCCCC2)c2ccccc12 [17n] | 2% |  |  | 28% |  |
| NC(=O)[C@H]1CCCN1C(=O)c1cn(CC2CCCCC2)c2ccccc12 [17f] | 3% | 0.411 ± 0.016 µM | >100 |  |  |
| COC(=O)[C@@H]1CCCN1C(=O)c1nn(CCCCCF)c2ccccc12 [15k] |  | 0.0419 ± 0.0021 µM | 4 |  | 0.173 ± 0.005 µM |
| COC(=O)[C@H]1CCCN1C(=O)c1nn(CCCCCF)c2ccccc12 [15l] | 1% | 0.513 ± 0.003 µM | >100 |  |  |
| CCCCCn1cc(C(=O)N2CCC[C@H]2C(=O)OC)c2ccccc21 [15a] |  | 0.189 ± 0.01 µM | 0.6 |  | 0.121 ± 0.006 µM |
| COC(=O)[C@@H]1CCCCN1C(=O)c1cn(CCCCCF)c2ccccc12 [16c] |  | 0.0841 ± 0.0019 µM | 8 |  | 0.716 ± 0.016 µM |
| NC(=O)[C@H]1CCCN1C(=O)c1nn(CCCCCF)c2ccccc12 [17l] | 4% |  |  | 25% |  |
| CCCCCn1nc(C(=O)N2CCCC[C@@H]2C(N)=O)c2ccccc21 [18j] | 2% | 0.145 ± 0.006 µM | >100 |  |  |
| COC(=O)[C@@H]1CCCCN1C(=O)c1nn(CCCCCF)c2ccccc12 [16k] |  | 0.0106 ± 0.0007 µM | 37 |  | 0.392 ± 0.005 µM |
| COC(=O)[C@@H]1CCCN1C(=O)c1nn(CC2CCCCC2)c2ccccc12 [15m] |  | 0.0207 ± 0.0006 µM | 3 |  | 0.0734 ± 0.0029 µM |
| COC(=O)[C@H]1CCCCN1C(=O)c1nn(CCCCCF)c2ccccc12 [16l] | 5% | 0.127 ± 0.005 µM | >100 |  |  |
| NC(=O)[C@H]1CCCN1C(=O)c1nn(Cc2ccc(F)cc2)c2ccccc12 [17p] | 4% |  |  | 12% |  |
| CCCCCn1cc(C(=O)N2CCCC[C@H]2C(N)=O)c2ccccc21 [18a] | 3% | 0.111 ± 0.006 µM | >100 |  |  |
| COC(=O)[C@@H]1CCCN1C(=O)c1nn(Cc2ccc(F)cc2)c2ccccc12 [15o] |  | 0.0165 ± 0.0011 µM | 3 |  | 0.0462 ± 0.0023 µM |
| COC(=O)[C@@H]1CCCCN1C(=O)c1cn(Cc2ccc(F)cc2)c2ccccc12 [16g] |  | 0.0225 ± 0.0011 µM | 4 |  | 0.0903 ± 0.0023 µM |
| NC(=O)[C@@H]1CCCN1C(=O)c1nn(CCCCCF)c2ccccc12 [17k] | 2% |  |  | 17% |  |
| NC(=O)[C@H]1CCCCN1C(=O)c1nn(CC2CCCCC2)c2ccccc12 [18n] | 26% | 0.112 ± 0.004 µM | >100 |  |  |
| NC(=O)[C@@H]1CCCN1C(=O)c1cn(CC2CCCCC2)c2ccccc12 [17e] | 6% | 0.288 ± 0.007 µM | >100 |  |  |
| COC(=O)[C@H]1CCCCN1C(=O)c1cn(CC2CCCCC2)c2ccccc12 [16f] | 37% | 0.0931 ± 0.0033 µM | >100 |  |  |
